Data on one compound can be found in PMC6920875, “Dithiocarbamate as a Valuable Scaffold for the Inhibition of Metallo-β-Lactmases” (Biomolecules, 2019).

pKi: −log10 of the molar value.

The target in data set [1] is T1, ImiS (Aeromonas veronii, UniProt O31272).
T1 construct: made in house; host or cells: E. coli BL21 (DE3), plasmid pET-26b-ImiS
Kind of data set: biochemical. Further details: species or system Aeromonas veronii bv. sobria. The settings on record: read-out: inhibition against ImiS. Here is the method: (§1) The dithiocarbamates, MβLs and substrates samples were prepared with 30 mM Tris, pH 7.0. […] Enzymes and inhibitors were pre-incubated for 5 min before adding substrate. […] The IC50 values were nonlinearly fitted by plotting the average percentage inhibition against inhibitor concentration. The inhibition modes of DC1 to ImiS, NDM-1 and L1 were assayed by generating Lineweaver–Burk plots, and Ki values were obtained by fitting initial velocity versus substrate concentration at each inhibitor concentration, using SigmaPlot 12.0 (Systat Software Inc., San Jose, CA, USA).
To evaluate the inhibitory activity of the dithiocarbamates, we over-expressed and purified MβLs NDM-1, VIM-2 and IMP-1 (B1), ImiS (B2), and L1 (B3) from three subclasses as previously reported. The inhibition experiments were performed with an Agilent UV8453 spectrometer. […] The concentrations of inhibitors were varied between 0 and 200 μM. The initial reaction rates were determined in the absence and presence of inhibitors in triplicate, and the generated average values were recorded.

Data set [2] concerns the target T2, L1 (Stenotrophomonas maltophilia, UniProt P52700).
T2 construct: made in house; host or cells: E. coli BL21 (DE3), plasmid pET-26b-L1
Kind of data set: Inhibition kinetics, Lineweaver–Burk plots. The class given is biochemical. On the procedure: as §1
(§2) To further identify the inhibition mode of the DCs against MβLs, we performed inhibition kinetics of NDM-1, ImiS and L1 by DC1, at different concentrations, with different substrate concentrations. […] Enzyme and inhibitors were pre-incubated for 5 min before starting the kinetic assays. All experimental hydrolytic rates of substrates were determined in triplicate. The inhibition mode of dithiocarbamates on MβLs was identified by generating Lineweaver–Burk plots, and Ki values were gained by fitting the initial velocity versus substrate concentration at each inhibitor concentration, using SigmaPlot 12.0.

Data set [3] concerns the target T3, NDM-1 (Klebsiella pneumoniae, UniProt C7C422).
T3 construct: made in house; host or cells: E. coli BL21 (DE3), plasmid pET26b-NDM-1
Put plainly: Inhibition kinetics, Lineweaver–Burk plots. The class given is biochemical. Here is the method: as §1, §2

Data set [4] concerns the target T2, L1. Put plainly: Isothermal titration calorimetry (ITC) of MβL-catalysed substrate hydrolysis. The settings on record: 100 nM enzyme, 1 mM cefazolin, inhibitor 0-200 μM, 25 °C. It is filed as biochemical. Here is the method: (§3) Isothermal titration calorimetry (ITC) assays were performed on a Malvern MicroCal iTC 200 instrument (Malvern Instruments, Malvern, UK) at 25 °C, by a single injection mode. During ITC experiments the reference cell was filled with degassed water. The MβLs, substrates, and inhibitor DC1 were prepared with 50 mM Tris, pH 7.0. The concentration of MβLs used was in the range 100–200 nM, concentration of substrate was 1 mM, and concentrations of DC1 were varied between 0 and 200 µM. Before starting the measurement, the enzyme was pre-incubated with different concentrations of DC1 for 5 min, and then delivered into the sample cell (210 µL). The hydrolysis reaction in the absence of inhibitors was also determined as a control. The stirring rate of the syringe was set to 750 rpm. The system was equilibrated at the desired 25 °C. […] Heat flow was recorded as a function of time. Data were collected every 1 s until the signal reached the baseline and continued to be recorded for the length of time necessary to generate the final baseline.
(§4) Isothermal titration calorimetry (ITC) was also employed, to identify the inhibition of the dithiocarbamates on MβLs and study their thermodynamic behaviour. […]

The target of data set [5] is T3, NDM-1. Described as above. The settings on record: 150 nM enzyme, 1 mM cefazolin, inhibitor 0-200 μM, 25 °C. The class given is biochemical. On the procedure:
as §3, §4

The target in data set [6] is T1, ImiS. The description is as above. The class given is biochemical, Aeromonas veronii bv. sobria. The note with it: 100 nM enzyme, 1 mM imipenem, inhibitor 0-200 μM, 25 °C. On the procedure: as §3, §4
For data set [7], the target named is T3, NDM-1. Put plainly: Time-dependence inhibition experiment, residual activity. It is filed as biochemical. The note with it: 13 nM NDM-1 incubated with inhibitor at its IC50 for 8 h.

T3 sequence (C7C422 29-270 limits assumed): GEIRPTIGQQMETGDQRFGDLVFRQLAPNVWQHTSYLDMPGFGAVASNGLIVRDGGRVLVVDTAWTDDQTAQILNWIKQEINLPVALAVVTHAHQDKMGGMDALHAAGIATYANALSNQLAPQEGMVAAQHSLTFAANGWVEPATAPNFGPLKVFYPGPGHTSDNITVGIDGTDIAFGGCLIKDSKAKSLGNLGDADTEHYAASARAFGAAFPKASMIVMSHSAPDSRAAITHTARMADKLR
T2 sequence (P52700 34-290): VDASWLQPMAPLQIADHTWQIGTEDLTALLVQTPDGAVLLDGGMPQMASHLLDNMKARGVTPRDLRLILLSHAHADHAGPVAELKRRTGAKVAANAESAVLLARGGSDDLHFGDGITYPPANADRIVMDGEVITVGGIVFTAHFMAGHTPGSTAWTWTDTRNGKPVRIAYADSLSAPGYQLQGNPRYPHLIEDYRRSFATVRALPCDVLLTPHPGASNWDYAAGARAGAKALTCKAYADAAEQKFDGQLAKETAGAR
T1 sequence (O31272 28-255 limits assumed): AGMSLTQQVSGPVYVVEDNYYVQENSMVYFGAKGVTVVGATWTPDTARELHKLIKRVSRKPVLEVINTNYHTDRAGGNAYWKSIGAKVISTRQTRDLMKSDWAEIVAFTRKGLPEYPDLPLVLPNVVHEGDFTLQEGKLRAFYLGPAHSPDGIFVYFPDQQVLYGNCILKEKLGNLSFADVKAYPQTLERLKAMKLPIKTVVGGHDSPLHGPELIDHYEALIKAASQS

`O=C(NNC(=S)[S][K])c1ccccc1O` [DC1] had a melting point of 264 to 265 °C. Moreover, the inhibition at 40 µM on ImiS [1] was greater than 90%. On L1 [2] (Lineweaver–Burk plots), the “inhibition mode against L1” value is “partially mixed inhibition”. The pKi at L1 [2] (read-out: Ki against L1, cefazolin 20-120 µM, inhibitor 0-20 μM, SigmaPlot fit) was 5.30. Besides, on NDM-1 [3] (Lineweaver–Burk plots), the “inhibition mode against NDM-1” value is recorded as “partially mixed inhibition”. The pKi at NDM-1 [3] (read-out: Ki against NDM-1, cefazolin 20-120 µM, inhibitor 0-20 μM, SigmaPlot fit) was 6.54. At L1 [4], the “reversibility of inhibition of L1 by ITC (total heat Q constant)” value was “reversible”. In addition, the “reversibility of inhibition of NDM-1 by ITC (total heat Q constant)” value at NDM-1 [5] is recorded as “reversible”. Moreover, at ImiS [6], the “reversibility of inhibition of ImiS by ITC (total heat Q constant)” value is listed as “reversible”. For the same compound, the “time dependence of NDM-1 inhibition (residual activity)” value at NDM-1 [7] is “no time-dependent inhibition”.

The term inhibition denotes the share of the control response that was lost under treatment. Broadly, the pKi is the negative decadic logarithm of the Ki, by convention in mol/L. As usually defined, the melting point is the temperature, or range, at which the solid turns liquid.
